Data reported in patent US20240181000A1, “LGG-DERIVED PEPTIDES AND METHODS OF USE THEREOF” (Ohio State Innovation Foundation, priority 2021, published 2024).
Marks after values point to notes of the source that are not given here. No end group written: not given here.

Tests used:
APEC O78 = test: Efficacy in wax moth larvae model; format: in vivo, Galleria mellonella
Procedure: Efficacy and toxicity of peptides in wax moth (Galleria mellonella) larvae model: To measure the efficacy and toxicity of peptides (P1, P2, and P3) in vivo, wax moth larvae model was used as described previously. Wax moth larvae were obtained from Vanderhorst Wholesale, Inc. (Saint Marys, OH) and were kept at 37° C. overnight before use. Healthy larvae (creamy color with no blackening) were selected and kept in sterile petri dishes before inoculation. For toxicity evaluation, larvae (n=10/group) were injected with 25.5 mM of peptides (dissolved in sterile water containing DMSO) through last left pro-leg using PB600-1 repeating dispenser (Hamilton) attached to insulin syringe (ReliOn; 31 gauze, 8 mm needle length). The injected larvae were incubated for 72 h at 37° C., and mortality was recorded every 12 h.
For efficacy evaluation, larvae (n=15/group) were pretreated (as above) and infected with rifampicin resistant (Rif) APEC O78 (2.3×10^4 CFU/larva) through last right pro-leg within 30 mins of treatment. The larvae were incubated at 37° C. for 72 h and mortality was recorded as above. […] The statistical significance (P<0.05) of treatments on survival of larvae and APEC load inside larvae was calculated using log-rank test and one-way ANOVA followed by Tukey's post-hoc test, respectively.

cecal microbiota = test: Cecal microbiome analysis (peptides, APEC infected); format: in vivo, chickens
Procedure: Cecal microbiome analysis: To investigate the impact of peptides (P1, P2, and P3) treatment (50 mg/kg and 100 mg/kg) on cecal microbiome of chickens, 16S rRNA based metagenomic study was conducted as previously described. DNA was extracted from 0.2 g of cecal contents using PureLink™ Microbiome DNA Purification Kit (Thermofisher Scientific) and treated with RNase A (2 μL of 100 mg/mL solution per sample; Qiagen) to remove the RNA. DNA quantity and quality were measured using NanoDrop 2000c Spectrophotometer (Thermo Fisher Scientific). The extracted DNA samples were subjected to 16S rRNA V4-V5 sequencing at molecular and cellular imaging center (MCIC), Ohio Agricultural Research and Development Center (OARDC) (mcic.osu.edu/genomics/illumina-sequencing). Amplicon libraries were prepared using IFU KAPA HiFi HotStart ReadyMixPCR Kit (Roche) and PCR clean-up was performed using Agencourt AMPure XP beads (BECKMAN COULTER Life Sciences). Nextera XT DNA Library Preparation Kit (Illumina) was used to generate Illumina library and sequencing was performed using Illumina MiSeq platform generating paired end 300-bp reads.
For the metagenomic analysis, QIIME (Quantitative Insights into Microbial Ecology) 2 bioinformatics platform (qiime2.org/) was used. Quality control of the raw reads was performed using FastQC 0.11.8 (Babraham Bioinformatics). Trimmomatic-0.33 was used to trim the adaptor and other illumina-specific sequences (www.usadellab.org/cms/?page=trimmomatic). The trimmed sequences (fastq.gz) were then imported into the QIIME 2 as a manifest file format (PairedEndManifestPhred33V2). The feature table construction and additional filtering of the sequences was performed using DADA2. The taxonomic analysis was performed using Naive Bayes classifiers trained on the Silva 132 99% OTUs (silva-132-99-nb-classifier.qza) database. The phylogenetic diversity was analyzed using align-to-tree-mafft-fasttree pipeline and alpha ([…]) were analyzed using core-metrics-phylogenetic pipeline (docs.qiime2.org/2019.7/tutorials/moving-pictures/). The statistical difference (P<0.05) in the taxonomic composition between the peptides treated, PC, and NC groups was determined using Mann-Whitney U test. The alpha and beta diversity were analyzed using Kruskal-Wallis and PERMANOVA tests (P<0.05), respectively.

APEC = format: in vivo, chickens
Excerpt: FIGS. 57A-57D show the APEC load of chickens (at 7 dpi [days post infection]) treated with either peptides P-1 or P-2.

PDENK [Peptide P2, PDENK]
APEC load in the larvae (APEC O78; 72 h post-infection, untreated 7.4±3.1 log CFU/larva): no APEC was isolated | Larval mortality (APEC O78; pretreated with 25.5 mM, 72 h, untreated 73.34%): 26.67% | Beta-diversity (weighted unifrac) vs NC chickens (cecal microbiota; 50 mg/kg): similar | Beta-diversity (weighted unifrac) vs NC chickens (cecal microbiota; 100 mg/kg): significantly (P<0.01) different | Relative abundance Clostridia (cecal microbiota; class, 100 mg/kg): 64.92% | Relative abundance Lachnospiraceae (cecal microbiota; family, 100 mg/kg): 56.10% | Relative abundance Lactobacillaceae (cecal microbiota; family, 100 mg/kg): 1.38% | Relative abundance Leuconostocaceae (cecal microbiota; family, 100 mg/kg, from 0.31%): 0% | Relative abundance Clostridiaceae 1 (cecal microbiota; family, 100 mg/kg, from 0.53%): 0% | Relative abundance (%) Anaerotruncus (cecal microbiota; genus, 50-mg/kg dose): 0.00% | Relative abundance (%) Bacteroides (cecal microbiota; genus, 50-mg/kg dose): 55.87% | Relative abundance (%) Clostridioides (cecal microbiota; genus, 50-mg/kg dose): 0.00% | Relative abundance (%) Clostridium sensu stricto 1 (cecal microbiota; genus, 50-mg/kg dose): 0.00% | Relative abundance (%) Enterococcus (cecal microbiota; genus, 50-mg/kg dose): 1.24% | Relative abundance (%) Erysipelatoclostridium (cecal microbiota; genus, 50-mg/kg dose): 3.84^a % | Relative abundance (%) Escherichia-Shigella (cecal microbiota; genus, 50-mg/kg dose): 4.95% | Relative abundance (%) Flavonifractor (cecal microbiota; genus, 50-mg/kg dose): 0.68% | Relative abundance (%) Lachnospiraceae (uncultured) (cecal microbiota; genus, 50-mg/kg dose): 2.30% | Relative abundance (%) Oscillibacter (cecal microbiota; genus, 50-mg/kg dose): 0.00% | Relative abundance (%) Pediococcus (cecal microbiota; genus, 50-mg/kg dose): 0.74% | Relative abundance (%) Ruminiclostridium 5 (cecal microbiota; genus, 50-mg/kg dose): 0.23% | Relative abundance (%) Ruminiclostridium 9 (cecal microbiota; genus, 50-mg/kg dose): 1.25% | Relative abundance (%) Ruminococcus gnavus group (cecal microbiota; genus, 50-mg/kg dose): 0.00% | Relative abundance (%) Ruminococcus torques group (cecal microbiota; genus, 50-mg/kg dose): 9.83% | Relative Abundance (%) Blautia (cecal microbiota; genus, 100-mg/kg dose): 0.00% | Relative Abundance (%) Caproiciproducens (cecal microbiota; genus, 100-mg/kg dose): 0.00% | Relative Abundance (%) Lactobacillus (cecal microbiota; genus, 100-mg/kg dose): 0.00% | Relative Abundance (%) Sellimonas (cecal microbiota; genus, 100-mg/kg dose): 0.00^b % | Relative Abundance (%) [Clostridium] innocuum group (cecal microbiota; genus, 100-mg/kg dose): 0.00^b % | Relative Abundance (%) [Eubacterium] coprostanoligenes group (cecal microbiota; genus, 100-mg/kg dose): 0.00% | Relative abundance (%) Anaerotruncus (cecal microbiota; genus, 100-mg/kg dose): 0.00% | Relative abundance (%) Bacillus (cecal microbiota; genus, 100-mg/kg dose): 0.37% | Relative abundance (%) Butyricicoccus (cecal microbiota; genus, 100-mg/kg dose): 1.53% | Relative abundance (%) Clostridiales vadin BB60 group (cecal microbiota; genus, 100-mg/kg dose): 0.00% | Relative abundance (%) Clostridioides (cecal microbiota; genus, 100-mg/kg dose): 0.00% | Relative abundance (%) Clostridium sensu stricto 1 (cecal microbiota; genus, 100-mg/kg dose): 0.00% | Relative abundance (%) Enterococcus (cecal microbiota; genus, 100-mg/kg dose): 2.01% | Relative abundance (%) Erysipelatoclostridium (cecal microbiota; genus, 100-mg/kg dose): 14.71^b % | Relative abundance (%) Escherichia-Shigella (cecal microbiota; genus, 100-mg/kg dose): 13.77% | Relative abundance (%) Flavonifractor (cecal microbiota; genus, 100-mg/kg dose): 0.68^b % | Relative abundance (%) Lachnospiraceae (uncultured) (cecal microbiota; genus, 100-mg/kg dose): 0.73% | Relative abundance (%) Lactococcus (cecal microbiota; genus, 100-mg/kg dose): 0.40% | Relative abundance (%) Oscillibacter (cecal microbiota; genus, 100-mg/kg dose): 0.13% | Relative abundance (%) Paenibacillus (cecal microbiota; genus, 100-mg/kg dose): 0.00% | Relative abundance (%) Pediococcus (cecal microbiota; genus, 100-mg/kg dose): 1.38^b % | Relative abundance (%) Ruminiclostridium 5 (cecal microbiota; genus, 100-mg/kg dose): 0.28% | Relative abundance (%) Ruminiclostridium 9 (cecal microbiota; genus, 100-mg/kg dose): 0.78% | Relative abundance (%) Ruminococcacede UCG-005 (cecal microbiota; genus, 100-mg/kg dose): 2.19% | Relative abundance (%) Ruminococcus torques group (cecal microbiota; genus, 100-mg/kg dose): 10.37% | Relative abundance (%) UBA1819 (cecal microbiota; genus, 100-mg/kg dose): 0.68% | Relative abundance (%) Weissella (cecal microbiota; genus, 100-mg/kg dose): 2.43^a % | Reduction of APEC colonization in cecum (APEC; 50 mg/L in drinking water, 7 dpi): 1.5 log CFU/gm | Bodyweight (APEC; in vivo): no significant effect
